Legend:
Conditions in all cases: 72 h
[1] = system: myeloid leukemia patient primary cells Pat.2; assay: area under dose-response curve (viability, 1 nM-10 uM) (fraction (0-1)); higher = more sensitive
Description: (§1)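 AUC (0–1, higher = more sensitive) of the 5-point dose–response (1 nM–10 µM, 72 h, CellTiter-Glo) in primary AML/CML patient mononuclear cells. 0.030103 is the floor for inactive compounds.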

[2] = system: myeloid leukemia patient primary cells Pat.4; assay: as above
Description: as §1

[3] = system: myeloid leukemia patient primary cells Pat.9; assay: as above
Description: as §1

[4] = system: myeloid leukemia patient primary cells Pat.13; assay: as above
Description: as §1

[5] = system: myeloid leukemia patient primary cells Pat.14; assay: as above
Description: as §1

[6] = system: myeloid leukemia patient primary cells Pat.7; assay: as above
Description: as §1

[7] = system: myeloid leukemia patient primary cells Pat.15; assay: as above
Description: as §1

[8] = system: myeloid leukemia patient primary cells Pat.12; assay: as above
Description: as §1

[9] = system: myeloid leukemia patient primary cells Pat.10; assay: as above
Description: as §1

[10] = system: myeloid leukemia patient primary cells Pat.6; assay: as above
Description: as §1

[11] = system: myeloid leukemia patient primary cells Pat.1; assay: as above
Description: as §1

[12] = system: myeloid leukemia patient primary cells Pat.5; assay: as above
Description: as §1

[13] = system: myeloid leukemia patient primary cells Pat.3; assay: as above
Description: as §1

[14] = system: myeloid leukemia patient primary cells Pat.11; assay: as above
Description: as §1

[15] = system: myeloid leukemia patient primary cells Pat.8; assay: as above
Description: as §1

LAMA-84 = assay: cell viability (% survival relative to DMSO control, bortezomib = 0%); higher = less cytotoxic
Summary of the method: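 Percent survival is reported as the mean of duplicate wells. Cells from 10 AML and 5 CML lines were plated in 384-well plates containing compounds at 1, 10, 100, 1000 or 10000 nM and kept for 72 h at 37 °C in 5% CO2. Readout used CellTiter-Glo luminescence, scaled so that vehicle equals 100% and a 10 µM positive control equals 0%.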

HL-60 = assay: cell viability (% survival relative to DMSO control); higher = less cytotoxic
Summary of the method: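 HL-60 cells grown in RPMI 1640 with 10% FBS were rescreened against the full library in 384-well plates, in duplicate, at five tenfold concentrations from 1 to 10,000 nM, alongside DMSO or 100 nM of one of three metabolic inhibitors for 72 h at 37 °C, 5% CO2. Reference wells contained DMSO or 10 μM proteasome inhibitor. Viability was read with CellTiter-Glo and normalised to these reference wells, and where reported, area under the curve was taken from four-parameter log-logistic fits in drc and PharmacoGx.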

[16] = system: myeloid leukemia patient primary cells Pat.15; assay: cell viability (% survival relative to DMSO control); higher = less cytotoxic
Summary of the method: (§2)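 Where an area under the curve appears, it was computed with the drc and PharmacoGx R packages from log-logistic fits. Those fits used four parameters. The underlying viability data came from CellTiter-Glo after 72 h, normalised to DMSO and 10 μM proteasome-inhibitor wells, with thawed, Ficoll-purified AML or CML patient mononuclear cells at 10,000 cells/well in RPMI 1640 with 10% FBS on 384-well plates pre-printed with 70 compounds at five tenfold concentrations (1–10,000 nM) in duplicate.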

[17] = system: myeloid leukemia patient primary cells Pat.12; assay: as above
Summary of the method: as §2

[18] = system: myeloid leukemia patient primary cells Pat.10; assay: as above
Summary of the method: as §2

[19] = system: myeloid leukemia patient primary cells Pat.6; assay: as above
Summary of the method: as §2

[20] = system: myeloid leukemia patient primary cells Pat.11; assay: as above
Summary of the method: as §2

O=C(O)Cn1nnc(-c2cc(N3CCC(Oc4cc(F)ccc4Br)CC3)no2)n1 [MK-8245]
Conditions | area under dose-response curve
[1] | < 0.0301
[2] | < 0.0301
[3] | < 0.0301
[4] | < 0.0301
[5] | < 0.0301
[6] | < 0.0301
[7] | < 0.0301
[8] | < 0.0301
[9] | 0.205
[10] | < 0.0301
[11] | < 0.0301
[12] | 0.0448
[13] | 0.0756
[14] | < 0.0301
[15] | < 0.0301

cell viability [%]
Conditions | LAMA-84 | [16] | [17] | [18] | [19] | [20]
1 nM | 99.6 | 95.9 | > 100 | 56.6 | 97.8 | > 100
10 nM | 109 | 91.5 | 88.3 | 80.7 | 97.2 | 96.4
100 nM | 95.1 | 93.5 | > 100 | > 100 | 97.3 | > 100
1000 nM | 95.5 | > 100 | 95.7 | 54.5 | > 100 | > 100
10000 nM | 91.6 | 95.2 | 93.6 | 4.72 | 97 | 97

cell viability [%], HL-60
Conditions | 0.001 µM | 0.01 µM | 0.1 µM | 1 µM | 10 µM
co-treatment: AZD3965 100 nM | 94.6 | 102 | 96.7 | 94.6 | 108
co-treatment: DMSO vehicle | 99.9 | 99.3 | 97.87 | 94.57 | 100
co-treatment: GSK2194069 100 nM | 96.6 | 100 | 101 | 90.2 | 97.4
co-treatment: pictilisib 100 nM | 95.7 | 96.7 | 104 | 90.7 | 103

O=C(C1CC1)N1CC[C@@H](C=C2NNC(=O)N2c2ccc(-c3ccc4occc4c3)cc2)C1
Conditions | area under dose-response curve
[1] | < 0.0301
[2] | < 0.0301
[3] | 0.235
[4] | < 0.0301
[5] | < 0.0301
[6] | < 0.0301
[7] | < 0.0301
[8] | < 0.0301
[9] | 0.082
[10] | < 0.0301
[11] | < 0.0301
[12] | 0.292
[13] | < 0.0301
[14] | < 0.0301
[15] | < 0.0301

cell viability [%]
Conditions | LAMA-84 | [16] | [17] | [18] | [19] | [20]
1 nM | 98.5 | 89.4 | 95.4 | 80.8 | 98.1 | 94.6
10 nM | 97.5 | 95.2 | 92.8 | 46.1 | 97.7 | 98
100 nM | 88.7 | 95.7 | > 100 | 50.2 | > 100 | 99.7
1000 nM | 82.8 | 90.3 | 89 | 67 | 89.4 | 91.5
10000 nM | 72.4 | 84 | 84.1 | 47.8 | 79.5 | 88

cell viability [%], HL-60
Conditions | 0.001 µM | 0.01 µM | 0.1 µM | 1 µM | 10 µM
co-treatment: AZD3965 100 nM | 101 | 104 | 81.6 | 76.9 | 68.9
co-treatment: DMSO vehicle | 101 | 105 | 95.1 | 92 | 85.8
co-treatment: GSK2194069 100 nM | 96.3 | 103.6 | 92 | 86.9 | 82.4
co-treatment: pictilisib 100 nM | 97.7 | 104 | 92.53 | 76.6 | 73.1

C=C(C=NNC(=N)N)NNC(=N)N [Mitoguazone]
Conditions | area under dose-response curve
[1] | < 0.0301
[2] | 0.0342
[3] | 0.6
[4] | < 0.0301
[5] | 0.604
[6] | 0.528
[7] | 0.161
[8] | < 0.0301
[9] | 0.574
[10] | 0.484
[11] | < 0.0301
[12] | 0.715
[13] | 0.412
[14] | < 0.0301
[15] | < 0.0301

cell viability [%]
Conditions | LAMA-84 | [16] | [17] | [18] | [19] | [20]
1 nM | 99.9 | 89.7 | > 100 | 78.7 | > 100 | 98.8
10 nM | 104 | 82.8 | 90 | 59.4 | 82 | 92.1
100 nM | 100 | 91.4 | 99.3 | 13.6 | 44.5 | > 100
1000 nM | 86.6 | 69.4 | 96.9 | 28.1 | 1.04 | 98.6
10000 nM | 24.4 | 19.6 | 99.4 | 89.2 | 50.8 | 84.1

cell viability [%], HL-60
Conditions | 0.001 µM | 0.01 µM | 0.1 µM | 1 µM | 10 µM
co-treatment: AZD3965 100 nM | 98 | 102 | 102 | 93.1 | 48.6
co-treatment: DMSO vehicle | 99.2 | 100.1 | 97.8 | 101 | 69.6
co-treatment: GSK2194069 100 nM | 101 | 112 | 102.2 | 98.3 | 76.9
co-treatment: pictilisib 100 nM | 108 | 120 | 104 | 112 | 56.7
